Where a name gives a salt, the structure may show the parent alone.
Tests used:
[1] = target: T1, human GSK3α (Homo sapiens, UniProt P49840); assay: In vitro enzymatic activity assay, GSK3α; type: biochemical; conditions: 1.0 mM ATP, 1.0 μM peptide substrate, 120 min, 25° C, read-out: Enzyme GSK3α (IC50)
T1 construct: Full length human GSK3α or GSK3B expressed as N-terminal GST fusion proteins; GST (N); purchased Carna Biosciences (Japan); host or cells: baculovirus host

[2] = target: T2, GSK3A (Homo sapiens, UniProt P49840); assay: NanoBRET cellular target engagement assay, Nanoluc-GSK3A in HEK293 cells; type: cell-based; conditions: NanoBRET GSK3α IC50, HEK293 cells, tracer K-8, 2 hours, 37° C
T2 construct: expressed in transfected cells

[3] = target: T3, GSK3B (Homo sapiens, UniProt P49841); assay: NanoBRET cellular target engagement assay, Nanoluc-GSK3B in HEK293 cells; type: cell-based; set-up: expressed in transfected cells; conditions: NanoBRET GSK3β IC50, HEK293 cells, tracer K-8, 2 hours, 37° C
[4] = target: T3, GSK3B; assay: In vitro enzymatic activity assay, GSK3β; type: biochemical; set-up: Full length human GSK3α or GSK3B expressed as N-terminal GST fusion proteins; GST (N); purchased Carna Biosciences (Japan); host or cells: baculovirus host; conditions: 1.0 mM ATP, 1.0 μM peptide substrate, 120 min, 25° C, read-out: Enzyme GSK3β (IC50)

T1 sequence (P49840 whole entry, the tested form may be a part): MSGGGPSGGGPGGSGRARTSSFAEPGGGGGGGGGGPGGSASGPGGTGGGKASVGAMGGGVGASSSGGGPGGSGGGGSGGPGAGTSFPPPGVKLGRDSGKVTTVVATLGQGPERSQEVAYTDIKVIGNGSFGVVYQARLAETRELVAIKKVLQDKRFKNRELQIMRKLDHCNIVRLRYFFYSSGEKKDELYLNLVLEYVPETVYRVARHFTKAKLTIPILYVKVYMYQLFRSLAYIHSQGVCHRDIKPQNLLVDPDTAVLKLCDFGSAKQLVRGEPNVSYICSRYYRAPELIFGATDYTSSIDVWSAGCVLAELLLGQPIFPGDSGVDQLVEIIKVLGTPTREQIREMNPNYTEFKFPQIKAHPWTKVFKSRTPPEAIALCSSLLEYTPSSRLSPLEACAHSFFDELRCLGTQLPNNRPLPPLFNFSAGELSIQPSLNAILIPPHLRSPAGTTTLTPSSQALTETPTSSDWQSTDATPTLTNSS
T2 sequence (P49840 whole entry): as the sequence (P49840 whole entry, the tested form may be a part) above
T3 sequence (P49841 whole entry, the tested form may be a part): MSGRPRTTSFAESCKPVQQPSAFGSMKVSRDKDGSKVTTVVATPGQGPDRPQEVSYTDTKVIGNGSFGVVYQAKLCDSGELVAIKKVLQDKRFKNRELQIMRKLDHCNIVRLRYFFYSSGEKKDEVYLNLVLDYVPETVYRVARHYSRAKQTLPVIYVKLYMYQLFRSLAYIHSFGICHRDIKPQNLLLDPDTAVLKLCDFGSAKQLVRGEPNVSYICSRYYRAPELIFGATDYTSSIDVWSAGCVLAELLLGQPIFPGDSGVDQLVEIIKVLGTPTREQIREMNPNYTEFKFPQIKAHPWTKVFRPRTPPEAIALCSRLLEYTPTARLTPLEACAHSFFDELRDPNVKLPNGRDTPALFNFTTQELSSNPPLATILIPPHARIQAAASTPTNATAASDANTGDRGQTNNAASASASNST

Structure (SMILES)	IC50 [1] [µM]	IC50 [2] [µM]	IC50 [3] [µM]	IC50 [4] [µM]
Nc1ncn(-c2c(Cl)cc(C(F)(F)F)cc2Cl)c(=O)c1C(=O)Nc1cncc(CNCCO)c1 [Example 23, 4-amino-1-(2,6-dichloro-4-(trifluoromethyl)phenyl)-N-(5-(((2-hydroxyethyl)amino)methyl)pyridin-3-yl)-6-oxo-1,6-dihydropyrimidine-5-carboxamide]	0.005	0.0043	0.239	0.343
Nc1ncn(-c2c(Cl)cccc2Cl)c(=O)c1C(=O)Nc1cncc([C@@H]2CCCN2)c1 [Example 40, (S)-4-amino-1-(2,6-dichlorophenyl)-6-oxo-N-(5-(pyrrolidin-2-yl)pyridin-3-yl)-1,6-dihydropyrimidine-5-carboxamide]	0.0101	0.0058	0.431	0.418
Cc1cc(C(F)(F)F)cc(C)c1-n1cnc(N)c(C(=O)Nc2cncc([C@H]3CCCCN3)c2)c1=O [Example 216, (R)-4-amino-1-(2,6-dimethyl-4-(trifluoromethyl)phenyl)-6-oxo-N-(5-(piperidin-2-yl)pyridin-3-yl)-1,6-dihydropyrimidine-5-carboxamide]	0.0056	0.0034	0.173	0.293
COc1cc(Cl)c(-n2cnc(N)c(C(=O)Nc3cncc([C@]4(N)CCCOC4)c3)c2=O)c(Cl)c1 (single isomer, unassigned) [Example 188, R)-4-amino-N-(5-(3-aminotetrahydro-2H-pyran-3-yl)pyridin-3-yl)-1-(2,6-dichloro-4-methoxyphenyl)-6-oxo-1,6-dihydropyrimidine-5-carboxamide or (S)-4-amino-N-(5-(3-aminotetrahydro-2H-pyran-3-yl)pyridin-3-yl)-1-(2,6-dichloro-4-methoxyphenyl)-6-oxo-1,6-dihydropyrimidine-5-carboxamide]	0.0104	0.0039	0.345	0.46
COC[C@](C)(N)c1cncc(NC(=O)c2c(N)ncn(-c3c(Cl)cc(OC)cc3Cl)c2=O)c1 (single isomer, unassigned) [Example 31, (R)-4-amino-N-(5-(2-amino-1-methoxypropan-2-yl)pyridin-3-yl)-1-(2,6-dichloro-4-methoxyphenyl)-6-oxo-1,6-dihydropyrimidine-5-carboxamide or (S)-4-amino-N-(5-(2-amino-1-methoxypropan-2-yl)pyridin-3-yl)-1-(2,6-dichloro-4-methoxyphenyl)-6-oxo-1,6-dihydropyrimidine-5-carboxamide]	0.0069	0.005	0.418	0.405
COc1cc(Cl)c(-n2cnc(N)c(C(=O)Nc3cncc([C@@H]4CCCCN4)c3)c2=O)c(Cl)c1 [Example 34, (S)-4-amino-1-(2,6-dichloro-4-methoxyphenyl)-6-oxo-N-(5-(piperidin-2-yl)pyridin-3-yl)-1,6-dihydropyrimidine-5-carboxamide]	0.0065	0.0037	0.268	0.344
COc1cc(Cl)c(-n2cnc(N)c(C(=O)Nc3cncc(C4CCC(C)N4)c3)c2=O)c(Cl)c1 (single isomer, unassigned) [Example 79]	0.0043	0.0024	0.17	0.317
COc1c(CN)cccc1NC(=O)c1c(N)ncn(-c2c(Cl)cccc2Cl)c1=O [Example 221, 4-amino-N-(3-(aminomethyl)-2-methoxyphenyl)-1-(2,6-dichlorophenyl)-6-oxo-1,6-dihydropyrimidine-5-carboxamide trifluoroacetate]	0.0156	0.0073	0.235	0.4
CN[C@H](C)c1cccc(NC(=O)c2c(N)ncn(-c3c(C)cc(OC)cc3Cl)c2=O)c1 (atropisomer, axis not shown) [Example 2, (R)-4-amino-1-((S)-2-chloro-4-methoxy-6-methylphenyl)-N-(3-(1-(methylamino)ethyl)phenyl)-6-oxo-1,6-dihydropyrimidine-5-carboxamide]	0.007	0.0049	0.329	0.399
COc1cc(Cl)c(-n2cnc(N)c(C(=O)Nc3cc(F)cc([C@H]4CCCCN4)c3)c2=O)c(Cl)c1 (single isomer, unassigned) [Example 222, (R)-4-amino-1-(2,6-dichloro-4-methoxyphenyl)-N-(3-fluoro-5-(piperidin-2-yl)phenyl)-6-oxo-1,6-dihydropyrimidine-5-carboxamide or (S)-4-amino-1-(2,6-dichloro-4-methoxyphenyl)-N-(3-fluoro-5-(piperidin-2-yl)phenyl)-6-oxo-1,6-dihydropyrimidine-5-carboxamide]	0.0021	0.0046	0.148	0.0992
Cc1cc(C(F)(F)F)cc(C)c1-n1cnc(N)c(C(=O)Nc2cncc(C3CCCCCN3)c2)c1=O (single isomer, unassigned) [Example 89, (R)-4-amino-N-(5-(azepan-2-yl)pyridin-3-yl)-1-(2,6-dimethyl-4-(trifluoromethyl)phenyl)-6-oxo-1,6-dihydropyrimidine-5-carboxamide or (S)-4-amino-N-(5-(azepan-2-yl)pyridin-3-yl)-1-(2,6-dimethyl-4-(trifluoromethyl)phenyl)-6-oxo-1,6-dihydropyrimidine-5-carboxamide]	0.0102	0.0064	0.485	0.669
Nc1ncn(-c2c(Cl)cc(OC3CC3)cc2Cl)c(=O)c1C(=O)Nc1cncc([C@@H]2CCCN2)c1 [Example 194, (S)-4-amino-1-(2,6-dichloro-4-cyclopropoxyphenyl)-6-oxo-N-(5-(pyrrolidin-2-yl)pyridin-3-yl)-1,6-dihydropyrimidine-5-carboxamide]	0.0062	0.0051	0.33	0.302
Cc1cc(C#N)cc(Cl)c1-n1cnc(N)c(C(=O)Nc2cccc([C@@H]3CCCCN3)c2)c1=O (single isomer, unassigned) [Example 41, (S)-4-amino-1-((S)-2-chloro-4-cyano-6-methylphenyl)-6-oxo-N-(3-(piperidin-2-yl)phenyl)-1,6-dihydropyrimidine-5-carboxamide or (R)-4-amino-1-((S)-2-chloro-4-cyano-6-methylphenyl)-6-oxo-N-(3-(piperidin-2-yl)phenyl)-1,6-dihydropyrimidine-5-carboxamide]	0.0121	0.0059	0.386	0.605
CCOc1cc(C)c(-n2cnc(N)c(C(=O)Nc3cccc([C@H](N)COC)c3)c2=O)c(Cl)c1 (atropisomer, axis not shown) [Example 72, (S)-4-amino-N-(3-(1-amino-2-methoxyethyl)phenyl)-1-((S)-2-chloro-4-ethoxy-6-methylphenyl)-6-oxo-1,6-dihydropyrimidine-5-carboxamide]	0.0075	0.0051	0.379	0.468

— patent US20260327191A1, “GSK3a INHIBITORS AND METHODS OF USE THEREOF” (Blueprint Medicines Corporation, priority 2023, published 2026)
